Results published in US6818642B2, “Benzylaminopyrimidines” (Altana Pharma AG, priority 2001, dated 2004).
Values after ≈ are worked out from the molar mass of the structure shown.

Key:
Helicobacter pylori [1] = test: Helicobacter pylori eradication rate in vivo (urease test); conditions: infected gerbils, 50 mg/kg by tube, 3 × daily, 4 days; urease test of antrum tissue four weeks after last treatment
Protocol: Determination of the Helicobacter Pylori Eradication Rate in Vivo
Gerbils were infected on days 1, 3, and 5 with a suspension containing 108-109 Helicobacter pylori bacteria per animal. […] Beginning on day 36, the gerbils were treated on four successive days—three times daily at 07.30, 11.30, and 15.00 hours—with a placebo or the test substance, using a tube. Four weeks after the last treatment, the gerbils were sacrificed using CO2. A tissue sample of the antrum was introduced into the urease test solution and incubated at 37° C. for 24 hours. Changes in color of the solution from yellow to violet, which resulted from the increase in pH caused by the formation of NH3 from the urease, were detected. The eradication rate was calculated as the percentage of animals whose stomach tissue sample gave a negative urease test.
Conditions Under Which the Animals Were Kept:
Groups of 5-10 gerbils per cage (type IV Macrolon cage) were kept at an ambient temperature of 23±2° C. and a relative humidity of 50±10%. They were fed ad libitum with NAFAG feed No. 9439 for rats and mice (NAFAG AG, CH-2900, Gosseu, Switzerland) and had free access to mains water during the experiment.
The substances administered are referenced in table C below using numbers which correspond to the numbers of the compounds in the examples.

E. coli = test: Inhibition of growth in vitro in liquid culture (NanoOrange fluorescence); format: cell-based; conditions: Escherichia coli, 24 hours incubation
Protocol: (§1) Determination of the Inhibition of Growth in Vitro in Liquid Culture
(§2) The principle of the technique is based on the detection of the multiplication of, for example, Helicobacter pylori in liquid culture using BHI/6% FCS medium. The method ensures linear fluorescence increase in the range from […].
(§3) The bacterial culture was distributed with an initial density of 1-3×10^8 microbes/ml in a 96-well MTP in 100 μl aliquots. The test substances in a concentration of […] in a final concentration of 1% DMSO were added to these minicultures. These MTPs were then incubated under microaerobic conditions (Anaerokult, Merck) and with shaking at 37° C. for 24 hours. Following the 24-hour incubation, the minicultures were transferred to filter MTPs and washed twice with isotonic buffer (filtered off with suction, taken up, shaken) and finally were taken up in double-distilled water and shaken, and an aliquot was transferred to a new MTP. This aliquot was admixed with the fluorescent dye NanoOrange (Molecular Probes) in accordance with the manufacturer's instructions. Development of protein detection took piece at 90° C. in a pressure-secured sandwich technique. After the plates had cooled, the fluorescence was measured on a plate reader at 549 nm. […] This calculation was made using origin, sigmoidal curve adaptation by means of the ‘logistic’ algorithm.

Helicobacter pylori [2] = test: as above; format: cell-based; conditions: BHI/6% FCS medium, 24 hours, 37° C., microaerobic, 1% DMSO
Protocol: as §1, §2, §3

Helicobacter pylori [3] = test: Agar dilution test (inhibition of growth in vitro on agar plates); format: cell-based; conditions: Columbia agar (Oxoid), growth period of 4 days; for MIC50: Helicobacter pylori, 96 h, read-out: approx. MIC50

Compound | melting point | Eradication rate (Helicobacter pylori [1]) | MIC50 (Helicobacter pylori [3]) | further results
Cc1nc(C)c(Cl)c(NCc2ccc(Oc3ccc4ncc([N+](=O)[O-])n4n3)c(O)c2)n1 [Compound 18, (5-Chloro-2,6-dimethyl-pyrimidin-4-yl)-[4-(3-nitro-imidazo[1,2-b]pyridazin-6-yloxy)-5-hydroxy-benzyl]-amine] | > 114 °C | – | – | –
Cc1nc(C)c(Cl)c(NCc2ccc(Oc3ccc4ncc([N+](=O)[O-])n4n3)c(OCC3CC3)c2)n1 [Compound 6, (5-Chloro-2,6-dimethylpyrimidin-4-yl)[3-cyclopropylmethoxy-4-(3-nitroimidazo[1,2-b]pyridazin-6-yloxy)benzyl]amine] | 178 to 180 °C | – | – | –
Cc1nc(C)c(Cl)c(NCc2ccc(Oc3ccc4ncc([N+](=O)[O-])n4n3)cc2)n1 [Compound 1, (5-Chloro-2,6-dimethylpyrimidin-4-yl)[4-(3-nitroimidazo[1,2-b]pyridazin-6-yloxy)benzyl]amine] | 203 °C | 100% | ~0.005 µg/mL (≈ 0.0117 µM) | IC50 (E. coli): > 1000 nM; IC50 (Helicobacter pylori [2]): 26 nM
Cc1nc(C)c(Cl)c(NCc2cc(Oc3ccc4ncc([N+](=O)[O-])n4n3)ccc2F)n1 [Compound 15, (5-Chloro-2,6-dimethylpyrimidin-4-yl)[2-fluoro-5-(3-nitroimidazo[1,2-b]pyridazin-6-yloxy)-benzyl]amine] | – | – | ~0.001 µg/mL (≈ 0.00225 µM) | –
COc1cc(CNc2nc(C)nc(C)c2Cl)ccc1Oc1ccc2ncc([N+](=O)[O-])n2n1 [Compound 4, (5-Chloro-2,6-dimethylpyrimidin-4-yl)[3-methoxy-4-(3-nitroimidazo[1,2-b]pyridazin-6-yloxy)-benzyl]amine] | 229 to 232 °C | 100% | ~0.001 µg/mL (≈ 0.00219 µM) | –
Cc1nc(C)c(Cl)c(NCc2ccc(Oc3ccc4ncc([N+](=O)[O-])n4n3)c(C)c2)n1 [Compound 9, (5-Chloro-2,6-dimethylpyrimidin-4-yl)[3-methyl-4-(3-nitroimidazo[1,2-b]pyridazin-6-yloxy)-benzyl]amine] | 183 to 185 °C | – | ~0.001 µg/mL (≈ 0.00227 µM) | –
(5-Chloro-2,6-dimethylpyrimidin-4-yl)[4-methoxy-3-nitroimidazo[1,2-b]pyridazin-6-yloxy)-benzyl]amino [Compound 5] | – | – | – | approx. MIC50 (Helicobacter pylori [3]): ~0.05 µg/mL
COc1cc(CNc2nc(C)nc(C)c2Cl)cc(Oc2ccc3ncc([N+](=O)[O-])n3n2)c1 [Compound 13, (5-Chloro-2,6-dimethylpyrimidin-4-yl)[3-methoxy-5-(3-nitroimidazo[1,2-b]pyridazin-6-yloxy)-benzyl]amine] | 198 to 199 °C | – | – | –
Cc1nc(C)c(Cl)c(NCc2ccc(Oc3ccc4ncc([N+](=O)[O-])n4n3)c(OC(F)F)c2)n1 [Compound 8, (5-Chloro-2,6-dimethylpyrimidin-4-yl)[3-(1,1-difluoromethoxy)-4-(3-nitroimidazo[1,2-b]pyridazin-6-yloxy)benzyl]amine] | 191 to 193.5 °C | 100% | ~0.01 µg/mL (≈ 0.0203 µM) | –
Cc1nc(C)c(Cl)c(NCc2cccc(Oc3ccc4ncc([N+](=O)[O-])n4n3)c2)n1 [Compound 3, (5-Chloro-2,6-dimethylpyrimidin-4-yl)[3-(3-nitroimidazo[1,2-b]pyridazin-6-yloxy)benzyl]-amine] | 222 to 223 °C | – | ~0.05 µg/mL (≈ 0.117 µM) | –
O=[N+]([O-])c1cnc2ccc(Oc3ccc(CNc4ncncc4Cl)cc3)nn12 [Compound 17, (5-Chloro-pyrimidin-4-yl)-[4-(3-nitro-imidazo[1,2-b]pyridazin-6-yloxy)-benzyl]-amine] | 185 °C | – | – | –
Cc1nc(C)c(Cl)c(NCc2ccc(Oc3ccc4ncc([N+](=O)[O-])n4n3)cc2F)n1 [Compound 11, (5-Chloro-2,6-dimethylpyrimidin-4-yl)[2-fluoro-4-(3-nitroimidazo[1,2-b]pyridazin-6-yloxy)-benzyl]amine] | 147 to 149 °C | 100% | ~0.01 µg/mL (≈ 0.0225 µM) | –
Cc1nc(C)c(Cl)c(NCc2cc(O)cc(Oc3ccc4ncc([N+](=O)[O-])n4n3)c2)n1 [Compound 14, 3-[(5-Chloro-2,6-dimethylpyrimidin-4-ylamino)methyl]-5-(3-nitroimidazo[1,2-b]pyridazin-6-yloxy)phenol] | 263 °C | – | ~0.01 µg/mL (≈ 0.0226 µM) | –
Cc1nc(C)c(Cl)c(NCc2ccc(Oc3ccc4ncc([N+](=O)[O-])n4n3)c(F)c2)n1 [Compound 10, (5-Chloro-2,6-dimethylpyrimidin-4-yl)[3-fluoro-4-(3-nitroimidazo[1,2-b]pyridazin-6-yloxy)-benzyl]amine] | 193 to 196 °C | 100% | ~0.01 µg/mL (≈ 0.0225 µM) | –
Cc1nc(C)c(Cl)c(NCc2ccc(Oc3ccc4ncc([N+](=O)[O-])n4n3)c(OCC(F)(F)F)c2)n1 [Compound 12, (5-Chloro-2,6-dimethylpyrimidin-4-yl)[4-(3-nitroimidazo[1,2-b]pyridazin-6-yloxy)-3-(2,2,2-trifluoroethoxy)benzyl]amine] | 185 to 188 °C | – | ~0.01 µg/mL (≈ 0.0191 µM) | –
COc1cc(CNc2nc(C)nc(C)c2Cl)cc(Br)c1Oc1ccc2ncc([N+](=O)[O-])n2n1 [Compound 16, [3-Bromo-5-methoxy-4-(3-nitroimidazo[1,2-b]pyridazin-6-yloxy)benzyl](5-chloro-2,6-dimethyl-pyrimidin-4-yl)amine] | 230 to 234 °C | 100% | – | –
